In patent publication US20140024683A1, “CHLORIDE CHANNEL AND CHLORIDE TRANSPORTER MODULATORS FOR THERAPY IN SMOOTH MUSCLE DISEASES” (priority 2011, published 2014):

What was measured:
[1] = tested on: human airway smooth muscle cells; assay: FLIPR membrane potentiometric dye assay (Example 21); type: cell-based
Experimental: Immortalized airway smooth muscle cell lines modified to stably express human telomerase reverse transcriptase were a kind gift from Dr. William Gerthoffer (University of Southern Alabama, Mobile, Ala.) prepared as described previously (Gosens et al., 2006) and grown in Dulbecco's Modified Eagle's Medium/F12 media (GIBCO, Grand Island, N.Y.), with 10% FBS and antibiotics.
Immortalized human airway smooth muscle cells were cultured on black-walled 96 well plates to 100% confluence, and were washed four times with warmed (37° C.) assay buffer of the following composition (in mM): NaCl 140, KCl 4.7, CaCl2 2.5, MgCl2 1.2, HEPES 11, D-glucose 10. A stock solution (100% dye) of FLIPR blue dye was prepared by reconstitution of 1 vial (125 mg) with 100 ml assay buffer. A 50% working stock was prepared by further diluting the reconstituted blue dye 1:1 with assay buffer and was used to load cells (90 μl/well) over 45 min at 37° C. in a humidified cell culture incubator (95% air/5% CO2). All reagents were dissolved in assay buffer. Fluorescence was measured with a Flex Station 3 (Molecular Devices) using an excitation wavelength of 530 nm, emission wavelength of 565 nm and a cutoff filter of 550 nm. Baseline fluorescence was measured every 2 seconds for 1 minute then for 2 minutes after injection of vehicle or compound of interest as indicated (using the Flexstation's 3 integrated injection capabilities).
Human airway smooth muscle cells were incubated with FLIPR membrane potentiometric dye to assess if the chloride channel blockers changed membrane potential at the cellular level. FLIPR fluorescence will increase with depolarization, and decrease with hyperpolarization. […] Therefore, chloride channel blockade, but not NKCC blockade, hyperpolarized human airway smooth muscle cells.

[2] = tested on: human airway smooth muscle strips; assay: Organ bath force, acetylcholine-induced contractions of human airway smooth muscle strips after pretreatment; settings: 100 μM, separate blockade (alone)
Experimental: Human muscle tissue was acquired from excess lung airways trimmed during surgery from healthy lung transplant donors. Acquired tissue was stored overnight at 20° C. Airway smooth muscle contractions measured ex vivo in organ baths were performed as previously described (Gallos et al., 2008; Gallos et al., 2009, Gallos et al., 2011; Gleason et al., 2010; Yim et al., 2011; Mitzuta et al., 2008). Closed guinea pig tracheal rings or strips of human airway smooth muscle (tracheal or main stem bronchus) were suspended in organ baths, which had 95% oxygen constantly perfusing through Dulbecco's Modified Eagle Medium. Rings were cut on the cartilaginous borders of the smooth muscle. The epithelial layer was dissected under microscopic assistance. […]
Following equilibration, in guinea pig experiments, the capsaicin analog N-vanillylnonanamide (10 μM final) was added to the organ baths to first activate and then deplete nonadrenergic, noncholinergic nerves. […] To avoid bias between treatment groups, tissues were contracted to individually calculated EC50 values for acetylcholine and tissues with similar Emax values were randomly assigned to treatments within individual experiments. […]

[3] = tested on: human airway smooth muscle cells; assay: MQAE fluorescence assay of intracellular chloride; type: cell-based
Experimental: To determine whether blockade of CaCCs or NKCCs induce changes in intracellular chloride concentrations in human airway smooth muscle cells, the MQAE in vitro fluorescent dye assay (Invitrogen) was used. Briefly, human airway smooth muscle cells were grown to 100% confluence in 96-well black-walled plates. Cells were loaded overnight with 10 mM MQAE in serum-free basal cell culture medium (M199, Invitrogen) and were washed once with warmed (37° C.) normal-chloride buffer [consisting of (in mM) 130 sodium chloride, 2 CaCl2, 1 MgCl2, 10 D-glucose, and 10 HEPES, pH 7.4]. […] An increase in fluorescence represents decreased intracellular chloride (removal of halide quenching of MQAE) while decreased fluorescence represents increased intracellular chloride (enhanced halide quenching of MQAE).

[4] = tested on: human airway smooth muscle; assay: Relaxation of acetylcholine contraction in human airway smooth muscle strips; settings: 10 μM bumetanide alone
Experimental: Studies using de-identified human tissue were reviewed by the Columbia University Institutional Review Board and deemed not human subjects research. Tissues were obtained from healthy, normal organ donor discarded surgical waste subsequent to lung transplant surgery. Tissues were collected after transplant and placed in DMEM media (GIBCO) and bubbled overnight in 5% carbon dioxide and 95% oxygen at 4° C. The following morning, the smooth muscle tissue was carefully dissected under a dissecting microscope and the epithelium removed. The strips were anchored in the organ bath as described above using KH buffer of the same composition. The strips were allowed to equilibrate for 1 hour with buffer exchanges every 15 minutes and were treated with 10^−6 M tetrodotoxin, 10^−5 M pyrilamine, and 10^−5
M MK571. Strips were contracted with an EC50 dose of acetylcholine (Ach)
This experiment was then repeated with human airway smooth muscle to investigate clinical relevance as a model of bronchospasm in humans.

Row | SMILES | change in membrane potential (FLIPR) ([1]; 10 μM bumetanide) | effect on acetylcholine-induced contraction [2] | intracellular chloride (MQAE fluorescence) ([3]; 10 μM bumetanide) | intracellular chloride (MQAE fluorescence) ([3]; 10 μM bumetanide, listed as Bumetanide) | relaxation of acetylcholine contraction [4] | membrane potential, continuous fluorescence recording (representative tracing) [1] | change in relative fluorescent units (membrane potential, FLIPR) ([1]; 100 μM, n=12) | intracellular chloride (MQAE fluorescence) ([3]; 100 μM niflumic acid)
1 | CCCCNc1cc(C(=O)O)cc(S(N)(=O)=O)c1Oc1ccccc1 [bumetanide] | did not cause a significant change | does not significantly reduce contraction | impairs chloride entry | decreases [Cl^−]i | failed to relax an acetylcholine contraction |  |  | 
2 | O=C(O)c1cccnc1Nc1cccc(C(F)(F)F)c1 [niflumic acid] |  | does not significantly reduce contraction |  |  |  | hyperpolarize | −254.7+/−37 RFU | increases intracellular chloride
